# Reference: ChEMBL document CHEMBL1201862, “PubChem BioAssay data set” (2004)
#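 Briefly, cells in 96-well plates were exposed to five compound concentrations for 48 h, and endpoints were estimated by linear interpolation. GI50 marks 50% less growth.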 Calls of active or inactive are those of the source. No stated cut-off is given here; in the data, active = GI50 up to about 1.1 µM and inactive = higher.
# What was measured:
# Test in all cases: growth of human tumour cells (NCI), 48 h
# SW-620 = tested on: SW-620
# RXF 393 = tested on: RXF 393
# TK-10 = tested on: TK-10
# KM12 = tested on: KM12
# MDA-MB-435 = tested on: MDA-MB-435
# MDA-N = tested on: MDA-N
# M14 = tested on: M14
# UACC-62 = tested on: UACC-62
# SK-MEL-2 = tested on: SK-MEL-2
# SF-295 = tested on: SF-295
# HT-29 = tested on: HT-29
# SF-539 = tested on: SF-539
# NCI-H460 = tested on: NCI-H460
# K562 = tested on: K562
# SK-MEL-28 = tested on: SK-MEL-28
# HOP-62 = tested on: HOP-62
# SF-268 = tested on: SF-268
# CAKI-1 = tested on: CAKI-1
# SN12C = tested on: SN12C
# Hs-578T = tested on: Hs-578T
# Malme-3M = tested on: Malme-3M
# MOLT-4 = tested on: MOLT-4
# COLO 205 = tested on: COLO 205
# SNB-19 = tested on: SNB-19
# HCT-116 = tested on: HCT-116
# HL-60 = tested on: HL-60
# SNB-75 = tested on: SNB-75
# SK-OV-3 = tested on: SK-OV-3
# A498 = tested on: A498
# SK-MEL-5 = tested on: SK-MEL-5
# PC-3 = tested on: PC-3
# IGROV-1 = tested on: IGROV-1
# OVCAR-3 = tested on: OVCAR-3
# RPMI-8226 = tested on: RPMI-8226
# CCRF-CEM = tested on: CCRF-CEM
# U-251 = tested on: U-251
# A549 = tested on: A549
# 786-0 = tested on: 786-0
# ACHN = tested on: ACHN
# NCI/ADR-RES = tested on: NCI/ADR-RES
# MCF7 = tested on: MCF7
# T47D = tested on: T47D
# BT-549 = tested on: BT-549
# MDA-MB-231 = tested on: MDA-MB-231
# LOX IMVI = tested on: LOX IMVI
# HCT-15 = tested on: HCT-15
# NCI-H522 = tested on: NCI-H522
# SR = tested on: SR
# OVCAR-5 = tested on: OVCAR-5
# HCC 2998 = tested on: HCC 2998
# HOP-92 = tested on: HOP-92
# UO-31 = tested on: UO-31
# NCI-H23 = tested on: NCI-H23
# OVCAR-8 = tested on: OVCAR-8
# UACC-257 = tested on: UACC-257
# DU-145 = tested on: DU-145
# EKVX = tested on: EKVX
# OVCAR-4 = tested on: OVCAR-4
# NCI-H226 = tested on: NCI-H226
structure (smiles),measurement,setting,value
Cc1nc2n(c1/C=C1/C(=O)Nc3cccc(Cl)c31)CCS2,GI50,SW-620,> 100 µM (inactive)
same,GI50,RXF 393,20.7 µM (inactive)
same,GI50,TK-10,37.7 µM (inactive)
same,GI50,KM12,> 100 µM (inactive)
same,GI50,MDA-MB-435,33.5 µM (inactive)
same,GI50,MDA-N,57.9 µM (inactive)
same,GI50,M14,> 100 µM (inactive)
same,GI50,UACC-62,33.6 µM (inactive)
same,GI50,SK-MEL-2,17.1 µM (inactive)
same,GI50,SF-295,27.5 µM (inactive)
same,GI50,HT-29,> 100 µM (inactive)
same,GI50,SF-539,19 µM (inactive)
same,GI50,NCI-H460,> 100 µM (inactive)
same,GI50,K562,20.3 µM (inactive)
same,GI50,SK-MEL-28,> 100 µM (inactive)
same,GI50,HOP-62,24 µM (inactive)
same,GI50,SF-268,19.5 µM (inactive)
same,GI50,CAKI-1,46.3 µM (inactive)
same,GI50,SN12C,25.1 µM (inactive)
same,GI50,Hs-578T,22 µM (inactive)
same,GI50,Malme-3M,50.2 µM (inactive)
same,GI50,MOLT-4,35.2 µM (inactive)
same,GI50,COLO 205,> 100 µM (inactive)
same,GI50,SNB-19,27.2 µM (inactive)
same,GI50,HCT-116,42.2 µM (inactive)
same,GI50,HL-60,> 100 µM (inactive)
same,GI50,SNB-75,17.5 µM (inactive)
same,GI50,SK-OV-3,16.7 µM (inactive)
same,GI50,A498,30 µM (inactive)
same,GI50,SK-MEL-5,55.1 µM (inactive)
same,GI50,PC-3,38 µM (inactive)
same,GI50,IGROV-1,48.8 µM (inactive)
same,GI50,OVCAR-3,> 100 µM (inactive)
same,GI50,RPMI-8226,> 100 µM (inactive)
same,GI50,CCRF-CEM,50.9 µM (inactive)
same,GI50,U-251,17 µM (inactive)
same,GI50,A549,56.1 µM (inactive)
same,GI50,786-0,40 µM (inactive)
same,GI50,ACHN,31 µM (inactive)
same,GI50,NCI/ADR-RES,31.1 µM (inactive)
same,GI50,MCF7,14.2 µM (inactive)
same,GI50,T47D,15.1 µM (inactive)
same,GI50,BT-549,25.1 µM (inactive)
same,GI50,MDA-MB-231,18.7 µM (inactive)
same,GI50,LOX IMVI,81.7 µM (inactive)
same,GI50,HCT-15,89.1 µM
same,GI50,NCI-H522,21.5 µM (inactive)
same,GI50,SR,> 100 µM (inactive)
same,GI50,OVCAR-5,> 100 µM (inactive)
same,GI50,HCC 2998,> 100 µM (inactive)
same,GI50,HOP-92,20.7 µM (inactive)
same,GI50,UO-31,29.8 µM (inactive)
same,GI50,NCI-H23,22 µM (inactive)
same,GI50,OVCAR-8,25.7 µM (inactive)
same,GI50,UACC-257,> 100 µM (inactive)
same,GI50,DU-145,48.1 µM (inactive)
same,GI50,EKVX,31.8 µM (inactive)
CCOC(=O)C(NC(=O)N(C1=NCC(C)S1)C1CCCCC1)(OC)C(F)(F)F (centres undefined),GI50,SW-620,35.2 µM (inactive)
same,GI50,RXF 393,17.9 µM (inactive)
same,GI50,TK-10,57.5 µM (inactive)
same,GI50,KM12,33 µM (inactive)
same,GI50,MDA-MB-435,32.2 µM (inactive)
same,GI50,MDA-N,30.9 µM (inactive)
same,GI50,M14,51.2 µM (inactive)
same,GI50,UACC-62,32.8 µM (inactive)
same,GI50,SK-MEL-2,34 µM (inactive)
same,GI50,SF-295,49.8 µM (inactive)
same,GI50,HT-29,20.7 µM (inactive)
same,GI50,SF-539,32.3 µM (inactive)
same,GI50,NCI-H460,35.4 µM (inactive)
same,GI50,K562,56.9 µM (inactive)
same,GI50,SK-MEL-28,47.2 µM (inactive)
same,GI50,HOP-62,15.8 µM (inactive)
same,GI50,SF-268,32.6 µM (inactive)
same,GI50,CAKI-1,34.6 µM (inactive)
same,GI50,SN12C,15.1 µM (inactive)
same,GI50,Hs-578T,42.5 µM (inactive)
same,GI50,Malme-3M,45.8 µM (inactive)
same,GI50,MOLT-4,37.8 µM (inactive)
same,GI50,COLO 205,23.2 µM (inactive)
same,GI50,SNB-19,49.3 µM (inactive)
same,GI50,HCT-116,31.6 µM (inactive)
same,GI50,HL-60,30.2 µM (inactive)
same,GI50,SNB-75,31 µM (inactive)
same,GI50,SK-OV-3,52.4 µM (inactive)
same,GI50,A498,16.4 µM (inactive)
same,GI50,OVCAR-4,40.3 µM (inactive)
same,GI50,SK-MEL-5,23.8 µM (inactive)
same,GI50,PC-3,30.8 µM (inactive)
same,GI50,OVCAR-3,24.3 µM (inactive)
same,GI50,CCRF-CEM,25.2 µM (inactive)
same,GI50,U-251,22.6 µM (inactive)
same,GI50,A549,39.1 µM (inactive)
same,GI50,786-0,15.5 µM (inactive)
same,GI50,ACHN,31.2 µM (inactive)
same,GI50,NCI/ADR-RES,65.5 µM (inactive)
same,GI50,MCF7,23.4 µM (inactive)
same,GI50,NCI-H226,21.1 µM (inactive)
same,GI50,T47D,32.5 µM (inactive)
same,GI50,BT-549,32.3 µM (inactive)
same,GI50,MDA-MB-231,46.5 µM (inactive)
same,GI50,LOX IMVI,19.7 µM (inactive)
same,GI50,HCT-15,30.1 µM
same,GI50,NCI-H522,27.7 µM (inactive)
same,GI50,SR,39.6 µM (inactive)
same,GI50,OVCAR-5,> 100 µM (inactive)
same,GI50,HCC 2998,43.9 µM (inactive)
same,GI50,HOP-92,46 µM (inactive)
same,GI50,UO-31,52 µM (inactive)
same,GI50,NCI-H23,43.3 µM (inactive)
same,GI50,OVCAR-8,70.5 µM (inactive)
same,GI50,UACC-257,56.5 µM (inactive)
same,GI50,DU-145,36.2 µM (inactive)
same,GI50,EKVX,34.8 µM (inactive)
